Measurements taken from PubChem BioAssay AID1918996 (Molecular Pharmacology Branch, DTP, NCI, 2023).

Test system: 349418-098-R-PDC complex spheroid growth
Assay: Anticancer human tumor 349418-098-R-PDC patient-derived lung adenocarcinoma cell line growth inhibition [AhR]
Conditions: for IC50: curve of first compound; for viability, T/C: stronger effect = lower value
Summary of the method: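 Spheroids combined tumor cells with HUVEC endothelial cells and human MSCs as stroma. AhR antagonists were paired with standard or investigational drugs, each dosed in half-log steps down from near clinical Cmax, or from 10 microM where Cmax was unknown.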

[1] = second compound 0.1 µM, first compound 0.0316 µM
[2] = second compound 0.1 µM, first compound 0.1 µM
[3] = second compound 0.1 µM, first compound 0.316 µM
[4] = second compound 0.1 µM, first compound 1 µM
[5] = second compound 0.1 µM, first compound 3.16 µM
[6] = second compound 0.1 µM, first compound 10 µM
[7] = second compound 0.316 µM, first compound 0.0316 µM
[8] = second compound 0.316 µM, first compound 0.1 µM
[9] = second compound 0.316 µM, first compound 0.316 µM
[10] = second compound 0.316 µM, first compound 1 µM
[11] = second compound 0.316 µM, first compound 3.16 µM
[12] = second compound 0.316 µM, first compound 10 µM
[13] = second compound 1 µM, first compound 0.0316 µM
[14] = second compound 1 µM, first compound 0.1 µM
[15] = second compound 1 µM, first compound 0.316 µM
[16] = second compound 1 µM, first compound 1 µM
[17] = second compound 1 µM, first compound 3.16 µM
[18] = second compound 1 µM, first compound 10 µM
[19] = second compound 3.16 µM, first compound 0.0316 µM
[20] = second compound 3.16 µM, first compound 0.1 µM
[21] = second compound 3.16 µM, first compound 0.316 µM
[22] = second compound 3.16 µM, first compound 1 µM
[23] = second compound 3.16 µM, first compound 3.16 µM
[24] = second compound 3.16 µM, first compound 10 µM
[25] = second compound 10 µM, first compound 0.0316 µM
[26] = second compound 10 µM, first compound 0.1 µM
[27] = second compound 10 µM, first compound 0.316 µM
[28] = second compound 10 µM, first compound 1 µM
[29] = second compound 10 µM, first compound 3.16 µM
[30] = second compound 10 µM, first compound 10 µM
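Note: spheroids exposed to agents for seven days before luminescence viability read.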

`CC1(C)CCC(CN2CCN(c3ccc(C(=O)NS(=O)(=O)c4ccc(NCC5CCOCC5)c([N+](=O)[O-])c4)c(Oc4cnc5[nH]ccc5c4)c3)CC2)=C(c2ccc(Cl)cc2)C1` + Cc1cncc(-c2nc(NCCc3c[nH]c4ccccc34)c3ncn(C(C)C)c3n2)c1 was tested, and the IC50 (second compound 0.1 µM) was > 10000 nM, the IC50 (second compound 0.316 µM) was > 10000 nM and the IC50 (second compound 1 µM) was > 10000 nM. The IC50 (second compound 3.16 µM) was < 31.6 nM, the IC50 (second compound 10 µM) was < 31.6 nM and the viability, T/C [1] was 102%. For the same molecule, the viability, T/C [2] was 108%, the viability, T/C [3] was 96.2% and the viability, T/C [4] was 92.4%. It also gave a viability, T/C [5] of 90.2%, a viability, T/C [6] of 88.4% and a viability, T/C [7] of 99.3%. It also gave a viability, T/C [8] of 99.8%, a viability, T/C [9] of 103% and a viability, T/C [10] of 87.7%. It also gave a viability, T/C [11] of 90.8%, a viability, T/C [12] of 94.1% and a viability, T/C [13] of 104%. For the same molecule, the viability, T/C [14] was 98.5%, the viability, T/C [15] was 91.3% and the viability, T/C [16] was 81.4%. The viability, T/C [17] was 83%, the viability, T/C [18] was 86.4% and the viability, T/C [19] was 22.3%. The viability, T/C [20] was 24.5%, the viability, T/C [21] was 23.2% and the viability, T/C [22] was 28.6%. The viability, T/C [23] was 27.3%, the viability, T/C [24] was 26.6% and the viability, T/C [25] was 3.27%. For the same molecule, the viability, T/C [26] was 2.85%, the viability, T/C [27] was 2.92% and the viability, T/C [28] was 3.37%. For the same molecule, the viability, T/C [29] was 3.16% and the viability, T/C [30] was 3.69%.

In the case of `CCN(c1cc(-c2ccc(CN3CCOCC3)cc2)cc(C(=O)NCc2c(C)cc(C)[nH]c2=O)c1C)C1CCOCC1` + Cc1cncc(-c2nc(NCCc3c[nH]c4ccccc34)c3ncn(C(C)C)c3n2)c1, the IC50 (second compound 0.1 µM) is reported as > 3000 nM, the IC50 (second compound 0.316 µM) is reported as > 3000 nM and the IC50 (second compound 1 µM) is reported as > 3000 nM. The IC50 (second compound 3.16 µM) was < 9.49 nM, the IC50 (second compound 10 µM) was < 9.49 nM and the viability, T/C (second compound 0.1 µM, first compound 0.00949 µM) was 98.9%. It also gave a viability, T/C (second compound 0.1 µM, first compound 0.03 µM) of 85%, a viability, T/C (second compound 0.1 µM, first compound 0.0949 µM) of 98% and a viability, T/C (second compound 0.1 µM, first compound 0.3 µM) of 96.5%. The viability, T/C (second compound 0.1 µM, first compound 0.949 µM) was 97.7%, the viability, T/C (second compound 0.1 µM, first compound 3 µM) was 80.5% and the viability, T/C (second compound 0.316 µM, first compound 0.00949 µM) was 105%. It also gave a viability, T/C (second compound 0.316 µM, first compound 0.03 µM) of 94.2%, a viability, T/C (second compound 0.316 µM, first compound 0.0949 µM) of 103% and a viability, T/C (second compound 0.316 µM, first compound 0.3 µM) of 103%. For the same molecule, the viability, T/C (second compound 0.316 µM, first compound 0.949 µM) was 105%, the viability, T/C (second compound 0.316 µM, first compound 3 µM) was 76.5% and the viability, T/C (second compound 1 µM, first compound 0.00949 µM) was 82.8%. The viability, T/C (second compound 1 µM, first compound 0.03 µM) was 94%, the viability, T/C (second compound 1 µM, first compound 0.0949 µM) was 81% and the viability, T/C (second compound 1 µM, first compound 0.3 µM) was 74.5%. For the same molecule, the viability, T/C (second compound 1 µM, first compound 0.949 µM) was 77.2%, the viability, T/C (second compound 1 µM, first compound 3 µM) was 71.9% and the viability, T/C (second compound 3.16 µM, first compound 0.00949 µM) was 19.9%. For the same molecule, the viability, T/C (second compound 3.16 µM, first compound 0.03 µM) was 17.9%, the viability, T/C (second compound 3.16 µM, first compound 0.0949 µM) was 19.6% and the viability, T/C (second compound 3.16 µM, first compound 0.3 µM) was 15.1%. For the same molecule, the viability, T/C (second compound 3.16 µM, first compound 0.949 µM) was 14.2%, the viability, T/C (second compound 3.16 µM, first compound 3 µM) was 12.3% and the viability, T/C (second compound 10 µM, first compound 0.00949 µM) was 3.07%. The viability, T/C (second compound 10 µM, first compound 0.03 µM) was 3.18%, the viability, T/C (second compound 10 µM, first compound 0.0949 µM) was 2.66% and the viability, T/C (second compound 10 µM, first compound 0.3 µM) was 2.82%. For the same molecule, the viability, T/C (second compound 10 µM, first compound 0.949 µM) was 2.27% and the viability, T/C (second compound 10 µM, first compound 3 µM) was 1.62%.

For `Cn1ncnc1C1c2n[nH]c(=O)c3cc(F)cc(c23)NC1c1ccc(F)cc1` (stereo not given) + Cc1cncc(-c2nc(NCCc3c[nH]c4ccccc34)c3ncn(C(C)C)c3n2)c1, the IC50 (second compound 0.1 µM) was > 100 nM, the IC50 (second compound 0.316 µM) was > 100 nM and the IC50 (second compound 1 µM) was > 100 nM. For the same molecule, the IC50 (second compound 3.16 µM) was < 0.316 nM, the IC50 (second compound 10 µM) was < 0.316 nM and the viability, T/C (second compound 0.1 µM, first compound 0.000316 µM) was 94.4%. For the same molecule, the viability, T/C (second compound 0.1 µM, first compound 0.001 µM) was 93.9%, the viability, T/C (second compound 0.1 µM, first compound 0.00316 µM) was 92.2% and the viability, T/C (second compound 0.1 µM, first compound 0.01 µM) was 87.8%. It also gave a viability, T/C [1] of 82.5%, a viability, T/C [2] of 80.6% and a viability, T/C (second compound 0.316 µM, first compound 0.000316 µM) of 90.1%. It also gave a viability, T/C (second compound 0.316 µM, first compound 0.001 µM) of 98%, a viability, T/C (second compound 0.316 µM, first compound 0.00316 µM) of 85.7% and a viability, T/C (second compound 0.316 µM, first compound 0.01 µM) of 88%. The viability, T/C [7] was 85.6%, the viability, T/C [8] was 78.5% and the viability, T/C (second compound 1 µM, first compound 0.000316 µM) was 86.7%. It also gave a viability, T/C (second compound 1 µM, first compound 0.001 µM) of 81.6%, a viability, T/C (second compound 1 µM, first compound 0.00316 µM) of 89.8% and a viability, T/C (second compound 1 µM, first compound 0.01 µM) of 78.2%. It also gave a viability, T/C [13] of 78.8%, a viability, T/C [14] of 78.4% and a viability, T/C (second compound 3.16 µM, first compound 0.000316 µM) of 17.9%. It also gave a viability, T/C (second compound 3.16 µM, first compound 0.001 µM) of 23.4%, a viability, T/C (second compound 3.16 µM, first compound 0.00316 µM) of 23.8% and a viability, T/C (second compound 3.16 µM, first compound 0.01 µM) of 19.4%. For the same molecule, the viability, T/C [19] was 25.5%, the viability, T/C [20] was 21.6% and the viability, T/C (second compound 10 µM, first compound 0.000316 µM) was 2.6%. For the same molecule, the viability, T/C (second compound 10 µM, first compound 0.001 µM) was 2.33%, the viability, T/C (second compound 10 µM, first compound 0.00316 µM) was 3.01% and the viability, T/C (second compound 10 µM, first compound 0.01 µM) was 2.42%. The viability, T/C [25] was 2.36% and the viability, T/C [26] was 2.64%.

In the case of `NS(=O)(=O)OCC1CC(n2ccc3c(NC4CCc5ccccc54)ncnc32)CC1O` (stereo not given) + Cc1cncc(-c2nc(NCCc3c[nH]c4ccccc34)c3ncn(C(C)C)c3n2)c1, the IC50 (second compound 0.1 µM) is reported as 192 nM, the IC50 (second compound 0.316 µM) is reported as 161 nM and the IC50 (second compound 1 µM) is reported as 142 nM. For the same molecule, the IC50 (second compound 3.16 µM) was < 31.6 nM, the IC50 (second compound 10 µM) was < 31.6 nM and the viability, T/C [1] was 101%. For the same molecule, the viability, T/C [2] was 69.6%, the viability, T/C [3] was 35.1% and the viability, T/C [4] was 14.4%. For the same molecule, the viability, T/C [5] was 9.84%, the viability, T/C [6] was 4.65% and the viability, T/C [7] was 89.1%. It also gave a viability, T/C [8] of 71.6%, a viability, T/C [9] of 19% and a viability, T/C [10] of 12.2%. It also gave a viability, T/C [11] of 6.13%, a viability, T/C [12] of 4.07% and a viability, T/C [13] of 86.2%. It also gave a viability, T/C [14] of 63.3%, a viability, T/C [15] of 19.2% and a viability, T/C [16] of 12.1%. For the same molecule, the viability, T/C [17] was 6.14%, the viability, T/C [18] was 4.69% and the viability, T/C [19] was 28.4%. For the same molecule, the viability, T/C [20] was 26.2%, the viability, T/C [21] was 18.7% and the viability, T/C [22] was 7.99%. The viability, T/C [23] was 3.97%, the viability, T/C [24] was 3.43% and the viability, T/C [25] was 2.2%. The viability, T/C [26] was 1.97%, the viability, T/C [27] was 1.34% and the viability, T/C [28] was 0.88%. The viability, T/C [29] was 1.03% and the viability, T/C [30] was 0.56%.
